# Results published in ChEMBL document CHEMBL1201862, “PubChem BioAssay data set” (2004).
# Active and inactive are the calls of the source.
# How the values were obtained:
# [1] = target: T1, Heat shock factor protein 1 (Mus musculus, UniProt P38532); experiment: inhibition of MG132-induced HSE-luciferase signal, confirmation, cell-based, NIH3T3, luminescence, dose retest (AID 2382); assay type: functional;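 also: NIH3T3 fibroblasts with HSF1-driven luciferase reporter stressed by proteasome inhibitor MG132; luminescence from HSF1-driven luciferase expression after 8 hours of MG132 stress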
# T1 sequence (P38532 whole entry): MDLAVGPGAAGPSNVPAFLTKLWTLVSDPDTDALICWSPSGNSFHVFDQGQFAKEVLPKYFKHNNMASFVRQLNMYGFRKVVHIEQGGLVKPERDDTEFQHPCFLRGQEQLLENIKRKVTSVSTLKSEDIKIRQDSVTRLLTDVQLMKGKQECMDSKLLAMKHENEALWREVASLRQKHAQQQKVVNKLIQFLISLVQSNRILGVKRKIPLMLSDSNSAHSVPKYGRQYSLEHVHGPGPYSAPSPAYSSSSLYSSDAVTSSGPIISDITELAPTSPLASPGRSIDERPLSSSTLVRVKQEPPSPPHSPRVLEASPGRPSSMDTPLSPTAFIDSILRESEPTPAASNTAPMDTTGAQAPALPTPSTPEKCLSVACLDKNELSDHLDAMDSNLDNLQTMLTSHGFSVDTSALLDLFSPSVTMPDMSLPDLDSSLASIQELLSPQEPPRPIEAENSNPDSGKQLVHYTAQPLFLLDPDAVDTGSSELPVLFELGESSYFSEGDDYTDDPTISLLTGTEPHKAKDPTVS
# H9c2 = experiment: cells; assay type: functional, cell-based; settings: Rattus norvegicus, H9c2, Myocardium;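 also: confirmatory concentration-response retest of ultra-high-throughput screening hits for modulation of myocardial damage; cell death induced by hydrogen peroxide oxidative stress; compound pretreatment for 60 min then peroxide exposure for 2 h; potency is for protecting the cells against peroxide damage rather than for killing them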
# [2] = target: T2, Replicative DNA helicase DnaB (Mycobacterium tuberculosis, UniProt P9WMR3); experiment: DnaB intein splicing inhibitors, dose response, biochemical, cell-free fluorescence (AID 449749); assay type: functional
# T2 sequence (P9WMR3 whole entry): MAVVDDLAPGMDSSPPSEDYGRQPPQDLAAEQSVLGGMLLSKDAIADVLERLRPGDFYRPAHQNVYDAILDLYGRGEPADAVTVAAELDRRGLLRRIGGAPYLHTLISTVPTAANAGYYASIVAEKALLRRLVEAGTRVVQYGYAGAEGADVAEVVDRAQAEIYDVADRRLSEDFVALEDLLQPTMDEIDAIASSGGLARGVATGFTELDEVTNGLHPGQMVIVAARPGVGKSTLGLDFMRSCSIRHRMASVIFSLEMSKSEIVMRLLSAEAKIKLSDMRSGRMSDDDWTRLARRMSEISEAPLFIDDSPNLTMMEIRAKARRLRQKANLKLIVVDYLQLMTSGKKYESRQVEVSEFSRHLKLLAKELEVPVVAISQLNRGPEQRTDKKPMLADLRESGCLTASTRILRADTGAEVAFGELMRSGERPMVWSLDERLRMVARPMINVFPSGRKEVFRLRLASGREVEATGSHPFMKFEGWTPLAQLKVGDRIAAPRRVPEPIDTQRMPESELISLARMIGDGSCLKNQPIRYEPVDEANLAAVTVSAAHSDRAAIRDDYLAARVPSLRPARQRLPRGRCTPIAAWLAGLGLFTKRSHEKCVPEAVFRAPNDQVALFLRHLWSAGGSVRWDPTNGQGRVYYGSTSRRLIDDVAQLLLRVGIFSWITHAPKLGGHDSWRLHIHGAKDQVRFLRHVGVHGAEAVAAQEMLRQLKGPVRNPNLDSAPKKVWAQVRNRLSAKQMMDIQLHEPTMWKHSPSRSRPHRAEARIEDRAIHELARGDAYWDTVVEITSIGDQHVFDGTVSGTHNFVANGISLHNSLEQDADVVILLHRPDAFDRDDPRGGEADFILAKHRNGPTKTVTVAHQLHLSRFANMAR
# Protein RecA = target: T3, Protein RecA (Mycobacterium tuberculosis, UniProt P9WHJ3); experiment: Fluorescence Cell-Free Homogeneous Dose Retest to Identify Inhibitors of RecA-Intein Splicing Activity. [Related pubchem assays (depositor defined):AID2097, AID2223, AID489010, AID492950]; assay type: functional
# T3 sequence (P9WHJ3 whole entry): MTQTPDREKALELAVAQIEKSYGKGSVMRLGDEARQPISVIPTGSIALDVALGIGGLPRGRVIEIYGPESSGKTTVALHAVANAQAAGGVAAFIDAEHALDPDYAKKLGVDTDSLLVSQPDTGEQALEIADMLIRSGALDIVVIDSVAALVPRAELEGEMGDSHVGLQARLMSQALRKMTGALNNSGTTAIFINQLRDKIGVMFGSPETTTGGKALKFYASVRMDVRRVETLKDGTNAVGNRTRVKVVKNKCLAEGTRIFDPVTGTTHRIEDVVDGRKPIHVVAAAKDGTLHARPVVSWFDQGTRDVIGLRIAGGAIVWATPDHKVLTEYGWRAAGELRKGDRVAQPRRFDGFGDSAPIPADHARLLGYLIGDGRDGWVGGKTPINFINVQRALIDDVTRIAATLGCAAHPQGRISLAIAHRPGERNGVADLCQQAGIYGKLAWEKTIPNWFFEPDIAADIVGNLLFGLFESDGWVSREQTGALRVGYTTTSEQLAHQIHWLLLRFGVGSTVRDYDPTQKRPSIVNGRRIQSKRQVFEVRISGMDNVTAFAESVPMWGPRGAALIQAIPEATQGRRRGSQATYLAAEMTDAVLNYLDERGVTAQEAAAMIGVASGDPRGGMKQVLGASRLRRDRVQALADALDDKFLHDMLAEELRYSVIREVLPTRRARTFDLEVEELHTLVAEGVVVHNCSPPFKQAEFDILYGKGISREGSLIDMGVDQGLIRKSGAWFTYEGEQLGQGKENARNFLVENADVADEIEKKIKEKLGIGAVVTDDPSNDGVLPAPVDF
# Cytochrome P450 2C19 = Cytochrome P450 2C19 (Homo sapiens, UniProt P33261); experiment: Cytochrome panel assay with activity outcomes. Panel member name: p450-cyp2c19 Compounds with AC50 equal or less than 10 uM are considered active; assay type: functional; settings: read-out: AC50
# Cytochrome P450 2C19, sequence (P33261 whole entry): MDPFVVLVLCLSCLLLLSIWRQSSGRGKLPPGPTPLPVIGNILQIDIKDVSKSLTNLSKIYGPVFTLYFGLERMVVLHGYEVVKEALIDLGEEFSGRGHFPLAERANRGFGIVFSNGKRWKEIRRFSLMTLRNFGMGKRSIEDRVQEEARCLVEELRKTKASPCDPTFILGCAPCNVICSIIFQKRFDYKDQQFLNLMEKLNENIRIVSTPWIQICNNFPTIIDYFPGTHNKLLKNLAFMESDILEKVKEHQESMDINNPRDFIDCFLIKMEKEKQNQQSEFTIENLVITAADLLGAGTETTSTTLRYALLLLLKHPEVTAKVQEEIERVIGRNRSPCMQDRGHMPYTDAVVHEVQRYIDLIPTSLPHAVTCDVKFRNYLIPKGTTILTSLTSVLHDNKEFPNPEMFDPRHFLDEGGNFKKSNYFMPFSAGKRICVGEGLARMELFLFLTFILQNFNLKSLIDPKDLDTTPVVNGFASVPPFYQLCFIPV
# Cytochrome P450 3A4 = Cytochrome P450 3A4 (Homo sapiens, UniProt P08684);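 also: CYP3A4 tested as one member of a cytochrome P450 panel screen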
# Cytochrome P450 3A4, sequence (P08684 whole entry): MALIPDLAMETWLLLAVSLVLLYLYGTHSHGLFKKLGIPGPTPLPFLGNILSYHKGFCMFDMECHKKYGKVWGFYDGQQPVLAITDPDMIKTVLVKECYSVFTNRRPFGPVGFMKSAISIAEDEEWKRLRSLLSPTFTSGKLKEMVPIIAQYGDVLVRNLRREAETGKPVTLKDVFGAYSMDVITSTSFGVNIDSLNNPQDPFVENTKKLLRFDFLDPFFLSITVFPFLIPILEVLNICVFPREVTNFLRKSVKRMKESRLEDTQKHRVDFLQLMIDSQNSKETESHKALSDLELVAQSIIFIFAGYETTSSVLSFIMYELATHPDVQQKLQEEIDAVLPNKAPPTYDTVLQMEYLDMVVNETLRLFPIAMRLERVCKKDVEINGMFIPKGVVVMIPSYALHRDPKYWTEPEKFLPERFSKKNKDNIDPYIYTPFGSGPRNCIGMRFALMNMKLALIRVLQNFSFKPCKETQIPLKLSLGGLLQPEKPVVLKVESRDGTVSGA
# [3] = system: Streptococcus sp. 'group A'; experiment: growth inhibition of control SK(-) GAS strain, dose response, counter-screen for streptokinase expression inhibitor project, luminescence, kanamycin, BacTiterGlo, confirmation (AID 1900); assay type: functional, organism-based
# Streptokinase A = target: T4, Streptokinase A (Streptococcus pyogenes serotype M1, UniProt P10520); experiment: S. pyogenes streptokinase expression inhibitors, potency, dose response, plasminogen activation absorbance, OD405 (AID 1914); assay type: functional, Streptococcus pyogenes M1 GAS;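 also: secreted streptokinase activity via plasminogen activation per viability signal from cell pellet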
# T4 sequence (P10520 whole entry): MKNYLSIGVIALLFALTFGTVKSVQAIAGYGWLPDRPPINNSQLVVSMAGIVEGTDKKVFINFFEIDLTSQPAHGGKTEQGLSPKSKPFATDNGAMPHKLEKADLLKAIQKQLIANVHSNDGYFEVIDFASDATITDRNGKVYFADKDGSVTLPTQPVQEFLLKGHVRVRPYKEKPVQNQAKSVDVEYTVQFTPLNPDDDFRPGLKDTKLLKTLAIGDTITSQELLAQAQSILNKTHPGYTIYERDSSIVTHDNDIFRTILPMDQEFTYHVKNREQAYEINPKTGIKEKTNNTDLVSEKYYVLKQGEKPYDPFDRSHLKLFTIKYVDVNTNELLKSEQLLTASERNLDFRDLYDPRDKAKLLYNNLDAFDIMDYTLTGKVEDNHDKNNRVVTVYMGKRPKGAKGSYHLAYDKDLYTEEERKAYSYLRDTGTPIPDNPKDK
# Streptococcus = experiment: Group A Streptococcus viability loss, dose response, counter-screen for streptokinase expression inhibitor project, luminescence, BacTiterGlo (AID 1915); assay type: functional, organism-based;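 also: potency for reduction of bacterial viability or growth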
# [4] = inhibitors of intracellular T. cruzi replication, confirmation, NIH3T3 host cells, beta-gal luminescence (AID 2044); assay type: functional, cell-based;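 also: intracellular parasites grown in NIH/3T3 mouse fibroblasts as host cells; luminescent beta-galactosidase reporter signal from transgenic T. cruzi replicating inside host cells; inhibitors lower the luminescence signal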
# [5] = cytotoxicity toward NIH3T3 fibroblasts, dose response, counter-screen, cell-based, ATP luminescence, mouse fibroblasts (AID 2010); assay type: functional;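 also: cells exposed to compound for about 90 hours before reading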
smiles,measurement,setting,value
COc1ccc(/C=C/C(=O)N2CCN(c3ccccn3)CC2)cc1OC,EC50,[1],> 195 µM (not active)
COc1cc2c(cc1OC)CN(c1nc(-c3cccnc3)nc3ccccc13)CC2,IC50,H9c2,> 79 µM (inactive)
CCOC(=O)Cc1n[nH]c2c1C(c1cccc(OC)c1OC)C(C#N)=C(N)O2 (stereo not drawn),AC50,[2],34.7 µM (inconclusive)
same,EC50,Protein RecA,> 380 µM (inactive)
COC(=O)c1ccccc1S(=O)(=O)N1CCC(NC(=O)c2ccccc2)CC1,AC50,[2],3.36 µM (active)
same,EC50,Protein RecA,15.1 µM (active)
CCOC(=O)c1[nH]c2cc(OC)c(OC)cc2c1NC(=O)C(C)N1CCN(Cc2ccccc2)CC1 (stereo not drawn),IC50,H9c2,10.2 µM (active)
CC(C)c1ccccc1NC(=O)COC(=O)c1c2c(nc3ccccc13)CCN(Cc1ccccc1)C2,IC50,H9c2,> 79 µM (inactive)
Cc1cccc(Sc2c(C=O)c3ccccc3n2C)c1,AC50,[2],5.7 µM (active)
same,EC50,Protein RecA,29.6 µM (active)
O=C(Cn1cccc1)NC1CCCCCC1,AC50,Cytochrome P450 2C19,6.31 µM (inconclusive)
same,AC50,Cytochrome P450 3A4,17.8 µM (inconclusive)
Cc1c(C(=O)Nc2ccc3nc(N4CCOCC4)sc3c2)oc2ccccc12,IC50,H9c2,> 79 µM (inactive)
CC(C)c1nc2ccccc2c2nnc(SCC(=O)NCc3ccco3)n12,EC50,[1],> 195 µM (not active)
COc1cc(/C=C(\C#N)C(=O)Nc2ccccc2)ccc1OCCN1CCOCC1,IC50,H9c2,> 79 µM (inactive)
Oc1ncnc2sc3c(c12)CCC3,IC50,H9c2,23 µM (active)
CC(C)c1ccc(OCCCN2CCCC2)cc1,EC50,[1],> 195 µM (not active)
COc1ccc(C2NC(S)=NC3=C2CCc2ccccc23)cc1OC (stereo not drawn),AC50,[2],20 µM (active)
same,EC50,Protein RecA,11.2 µM (active)
CCn1cc(C(=O)OCC(=O)c2cc(C)n(-c3cccc(C(F)(F)F)c3)c2C)c(=O)c2ccc(C)nc21,EC50,[3],5.68 µM (active)
same,EC50,Streptokinase A,21.6 µM (active)
same,EC50,Streptococcus,> 50 µM (not active)
COc1ccccc1CNC(=O)N1CCN(c2ccccc2C)CC1,EC50,[1],> 195 µM (not active)
Cc1cccc2sc(NC(=O)[C@H](C)N3C(=O)C4CC=CCC4C3=O)nc12 (stereo partly drawn),EC50,[1],> 195 µM (not active)
CCCC(C)NS(=O)(=O)c1ccccc1 (stereo not drawn),EC50,[1],> 195 µM (not active)
COC(=O)c1[nH]c2ccccc2c1NC(=O)CNC1CCCCC1,IC50,H9c2,> 79 µM (inactive)
C=CCC(Nc1ccccc1)c1ccc(OC)c(OC)c1 (stereo not drawn),EC50,[1],> 195 µM (not active)
CSc1ncccc1C(=O)N1CCCC(N2CCN(c3ccccc3F)CC2)C1 (stereo not drawn),EC50,[1],> 195 µM (not active)
O=C1CC(CSc2ccc(Cl)cc2)=NN1,AC50,[2],3.23 µM (active)
same,EC50,Protein RecA,1.61 µM (active)
Cc1ccc(CSC(=N)Nc2ccccc2)cc1C,AC50,Cytochrome P450 3A4,3.16 µM (inconclusive)
COc1cccc(CNC(=O)c2ccccc2SCC(=O)N2CCCC2)c1,EC50,[1],> 195 µM (not active)
COc1ccc([N+](=O)[O-])cc1NC(=O)C(C)OC(=O)Cn1[nH]c(=O)c2ccccc2c1=O (stereo not drawn),IC50,H9c2,> 79 µM (inactive)
CCCc1n[nH]c2c1C(c1ccc(OCCN3CCOCC3)c(OC)c1)C(C#N)=C(N)O2 (stereo not drawn),AC50,[2],41.4 µM (active)
same,EC50,Protein RecA,9.37 µM (active)
Cc1ccc(C)c(C(=O)Nc2cc(C)nn2-c2nc(C)cc(C)n2)c1,EC50,[1],> 195 µM (not active)
same,IC50,H9c2,> 79 µM (inactive)
CO[C@H]1COC(=O)[C@@H](C)COC(=O)[C@@H](Cc2ccccc2)NC(=O)C/C=C\[C@H]1C,AC50,Cytochrome P450 3A4,6.31 µM (inconclusive)
COc1ccc(N2C(=O)CC(NNc3ncc(Cl)cc3Cl)C2=O)cc1 (stereo not drawn),EC50,[1],> 195 µM (not active)
CSc1n[nH]c(-c2sccc2OCc2ccc(C)cc2)n1,AC50,Cytochrome P450 3A4,20 µM (inconclusive)
CCOc1cc(/C=C/c2ccc3cccc([N+](=O)[O-])c3n2)ccc1OCC(=O)N(C)C,IC50,H9c2,10.7 µM (active)
O=C(O)C1CSC(c2ccc3c(c2)OCO3)N1 (stereo not drawn),EC50,[1],> 195 µM (not active)
O=C(O)CSc1c2c(nc3cc(C(=O)Nc4cccc(C(F)(F)F)c4)ccc13)CCCC2,AC50,[2],22.6 µM (active)
same,EC50,Protein RecA,13 µM (active)
COc1ccc(-c2cc(-c3ccc(O)cc3)nc(N)c2C#N)cc1OC,IC50,H9c2,> 79 µM (inactive)
CCS(=O)(=O)N1CCC2(CC1)OCCN2S(=O)(=O)c1ccc(OC)cc1,EC50,[1],> 195 µM (not active)
CCOc1cc(C(=S)N2CCOCC2)ccc1OS(=O)(=O)c1ccc(OC)cc1,EC50,[1],> 195 µM (not active)
Cc1ccc(CS(=O)(=O)CCC(=O)NCc2ccccn2)cc1,AC50,Cytochrome P450 3A4,31.6 µM (inconclusive)
CCN(CC(=O)Nc1c(F)cccc1F)C(=O)Cn1[nH]c(=O)c2ccccc2c1=O,IC50,H9c2,> 79 µM (inactive)
COc1cccc(-c2cnc3c(NC=O)cc(-c4cc(C)c(O)c(C)c4)cn23)c1,IC50,H9c2,> 79 µM (inactive)
Cc1cc(C)nc(SCc2ccc(C(=O)N/N=C/c3ccccn3)cc2)n1,IC50,H9c2,> 79 µM (inactive)
O=C(N/N=C/c1ccco1)/C(=C/c1cccc([N+](=O)[O-])c1)NC(=O)c1ccccc1,AC50,Cytochrome P450 2C19,1 µM (inconclusive)
same,AC50,Cytochrome P450 3A4,1.12 µM (inconclusive)
CCOC(=O)/C(=N\Nc1ccc(OC)cc1)c1csc(Nc2ccccc2)n1,EC50,[3],3.87 µM (active)
same,EC50,Streptokinase A,> 150 µM (not active)
same,EC50,[4],1.33 µM (active)
same,EC50,[5],9.87 µM (active)
same,EC50,Streptococcus,10.8 µM (active)
